Measurements published in US20080254445A1, “Prognosis in Cancer Patients Vaccinated with a Cancer Antigen Peptide-Associated Agent” (priority 2003, published 2008).

Tests used:
[1] = system: peptide-specific CTL precursors in PBMCs; assay: Peptide-specific CTL precursors in pre- and post (6th)-vaccination PBMCs by IFN-γ-release assay; type: cell-based, human; settings: post (6th)-vaccination PBMC; positive cases/No. of tested cases (% positive)
peptide-reactive IgG = assay: ELISA of peptide-reactive serum IgG in pre- and post-vaccination sera; type: in vivo, human; settings: post (3rd and 6th)-vaccination sera vs pre-vaccination; positive cases/No. of tested cases (% positive)
[2] = Delayed type hypersensitivity (DTH) skin test; type: in vivo, human; settings: skin test site, first to 6th vaccination; positive cases/No. of tested cases (% positive)

| Sequence | Increased immune reactions to peptide: CTL activity [1] | Increased immune reactions to peptide: IgG antibody (peptide-reactive IgG) | Increased immune reactions to peptide: DTH response [2] |
| --- | --- | --- | --- |
| KLKHYGPGWV [CypB129] | 0/6 | – | – |
| ALVEFEDVL [HNRPL140] | 0/5 | 0/5 | 0/5 |
| ILGELREKV [WHSC141] | – | – | 0/8 |
| EYCLKFTKL [ART1 170] | 0/7 | – | 0/9 |
| RIIYDRKFL [EIF51] | 0/1 | – | 0/1 |
| ASLDSDPWV [WHSC103] | 0/6 | – | – |
| SYTRLFLIL [SART2 899] | 0/7 | – | – |
| KLVERLGAA [Ick246] | – | – | 0/7 |
| LLQAEAPRL [SART3 302] | 0/4 | 0/5 | 0/6 |
| ILPRKHHRI [UBE208] | 0/1 | – | 0/1 |
| DYSARWNEI [SART2 93] | – | – | 0/19 |
| DYPSLSATDI [ART4 75] | – | 0/15 | – |
| DVWSFGILL [Ick422] | – | 0/10 | – |
| AFLRHAAL [ART4 13] | 0/1 | 0/2 | 0/4 |
| DFMIQGGDF [CypB91] | 0/17 | – | – |
| KFHRVIKDF [CypB84] | 0/3 | – | 0/4 |
| LIADFLSGL [UBE85] | – | – | 0/2 |
| RLAEYQAYI [SART3 309] | 0/6 | – | 0/9 |
